Reference: ChEMBL document CHEMBL2311280, “Protein tyrosine phosphatase 1B inhibitory effect by dammarane-type triterpenes from hydrolyzate of total Gynostemma pentaphyllum saponins” (Bioorg Med Chem Lett, 2013)

target: T1, Tyrosine-protein phosphatase non-receptor type 1 (Homo sapiens, UniProt P18031); assay: Inhibition of PTP1B (unknown origin)
T1 sequence (P18031 whole entry): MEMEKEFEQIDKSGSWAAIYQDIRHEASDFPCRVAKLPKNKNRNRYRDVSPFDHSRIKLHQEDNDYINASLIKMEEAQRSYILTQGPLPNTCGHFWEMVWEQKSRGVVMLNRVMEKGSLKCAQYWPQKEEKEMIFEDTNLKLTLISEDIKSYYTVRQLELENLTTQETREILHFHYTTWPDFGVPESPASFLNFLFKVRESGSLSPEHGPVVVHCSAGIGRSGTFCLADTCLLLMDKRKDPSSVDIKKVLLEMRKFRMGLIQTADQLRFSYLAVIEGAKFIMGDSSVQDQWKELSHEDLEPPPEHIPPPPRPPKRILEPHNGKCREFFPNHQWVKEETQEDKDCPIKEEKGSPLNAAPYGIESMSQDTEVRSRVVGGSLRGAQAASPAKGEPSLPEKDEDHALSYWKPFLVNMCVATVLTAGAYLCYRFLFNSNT

For `CC(C)=CCC[C@@](O)(CO)[C@H]1CC[C@]2(C)[C@@H]1CC[C@@H]1[C@@]3(C)CC[C@H](O)C(C)(C)[C@@H]3CC[C@]12C`, which IC50 is on record?
Its IC50 is 15.2 µM.

Which IC50 does the source give for `C/C(=C/CCC(C)(C)O)[C@H]1CC[C@]2(C)[C@@H]1[C@H](O)C[C@@H]1[C@@]3(C)CC[C@H](O)C(C)(C)[C@@H]3CC[C@]12C` here?
Its IC50 is greater than 50 µM.

For `C=C(C)CCC[C@](C)(O)[C@H]1CC[C@]2(C)[C@@H]1[C@H](O)C[C@@H]1[C@@]3(C)CC[C@H](O)C(C)(C)[C@@H]3CC[C@]12C`, which IC50 is on record?
Its IC50 is greater than 50 µM.

With `C=C(C)[C@@H](O)CC[C@](C)(O)[C@H]1CC[C@]2(C)[C@@H]1[C@H](O)C[C@@H]1[C@@]3(C)CC[C@H](O)C(C)(C)[C@@H]3CC[C@]12C` as the compound, how does the IC50 read?
The IC50 was greater than 50 µM.

How did the IC50 turn out when `CC(C)=C[C@@H]1C[C@](O)([C@H]2CC[C@]3(C)[C@@H]2CC[C@@H]2[C@@]4(C)CC[C@H](O)C(C)(C)[C@@H]4CC[C@]23C)C(=O)O1` was run?
The IC50 was 27.8 µM.

For `CC(C)=C[C@H]1C[C@@](O)([C@H]2CC[C@]3(C)[C@@H]2CC[C@@H]2[C@@]4(C)CC[C@H](O)C(C)(C)[C@@H]4CC[C@]23C)C(=O)O1`, which IC50 is on record?
The IC50 was 8.4 µM.

For `CC1(C)[C@@H](O)CC[C@]2(C)[C@H]3CC[C@@H]4[C@@H](C(=O)O)CC[C@@]4(C)[C@]3(C)CC[C@@H]12`, which IC50 is on record?
The IC50 was 13.1 µM.

`CC(C)=CCC[C@](C)(O)[C@H]1CC[C@]2(C)[C@@H]1[C@H](O)C[C@@H]1[C@@]3(C)CC[C@H](O)C(C)(C)[C@@H]3CC[C@]12C` was tested. Which IC50 did it give?
Its IC50 is 23.6 µM.

For `CC(C)=C1CC([C@H]2CC[C@]3(C)[C@@H]2CC[C@@H]2C4=C(CC[C@]23C)C(C)(C)[C@@H]2CC[C@H]4O2)=CC1=O` [GYPENSAPOGENIN B], which IC50 is on record?
Its IC50 is 24.5 µM.

`CC(C)=C1CC=C([C@H]2CC[C@]3(C)[C@@H]2CC[C@@H]2[C@@]4(C)CC[C@H](O)C(C)(C)[C@@H]4CC[C@]23C)C1=O` [GYPENSAPOGENIN C] was tested. Which IC50 did it give?
The IC50 was greater than 50 µM.

Which IC50 does the source give for `CC(C)=C[C@H]1C=C([C@H]2CC[C@]3(C)[C@@H]2CC[C@@H]2[C@@]4(C)CC[C@H](O)C(C)(C)[C@@H]4CC[C@]23C)C(=O)O1` [GYPENSAPOGENIN D] here?
The IC50 was greater than 50 µM.

`CC(C)(O)C[C@H]1C=C([C@H]2CC[C@]3(C)[C@@H]2CC[C@@H]2[C@@]4(C)CC[C@H](O)C(C)(C)[C@@H]4CC[C@]23C)C(=O)O1` [GYPENSAPOGENIN E] was tested. Which IC50 did it give?
The IC50 was 23 µM.

With `CC(C)(O)C[C@@H]1C=C([C@H]2CC[C@]3(C)[C@@H]2CC[C@@H]2[C@@]4(C)CC[C@H](O)C(C)(C)[C@@H]4CC[C@]23C)C(=O)O1` [GYPENSAPOGENIN F] as the compound, how does the IC50 read?
The IC50 was 49 µM.

How did the IC50 turn out when `CC(=O)O[C@H]1CC[C@]2(C)[C@H]3CC[C@@H]4[C@@H](C5=C[C@H](CC(C)(C)O)OC5=O)CC[C@@]4(C)[C@]3(C)CC[C@H]2C1(C)C` [GYPENSAPOGENIN G] was run?
The IC50 was 24.5 µM.
